Reference: US6461638B1, “Laxative compositions and method for making same” (Techni-Pharma, priority 1996, dated 2002)

Test: Effervescence measure by release of CO2, Bernard's calcimeter, water heated to 37° C.
Assay type: physicochemical
Conditions: acid compound mixed with Na bicarbonate
Excerpt: Effervescence Measure by Release of CO2
Working of the Bernard's calcimeter.
The assay consists in verifying the working of the equipment of the Bernard's calcimeter.
A little modification has been made on the rubber stopper of the lateral neck by adding a tap. This addition is necessary until at time 0, the experiment begins with an inner pressure equal to the atmospheric pressure.
Introduce a saturated sodium chloride solution in the flask and the graduated tube
Adjust the level of the graduated tube before starting the experiment
Lay on the magnetic heating stirrer the flask containing 100 ml of distilled water at 37° C.
Fill up the flask with a stopper previously fixed at the end of the releasing tube of CO2
Introduce the suppository in the flask without contact occurring between the suppository and the water
Verify again the sodium chloride level in the graduated tube before turning off the tap of the side stopper
Turn on the stirrer and drop the suppository, without forget to unlock the chronometer
Thus, it is necessary to heat the water until 37° C. Thus a magnetic heating stirrer has been used.

## O=C1CCC(=O)N1 [succinimide]
  CO2 release (in words): only induces a reduced and delayed release
